# pIC50: −log10 of the molar value.
# Key:
# HDAC6 = target: T1, HDAC6 (Homo sapiens, UniProt Q9UBN7); assay: HDAC6 enzyme activity assay (fluorogenic substrate Ac-GAK(Ac)-AMC); format: biochemical; conditions: HDAC6 (Abcam), 20 µM substrate, 37°C 30 min
# T1 construct: purchased Abcam
# T1 sequence (Q9UBN7 1-1215): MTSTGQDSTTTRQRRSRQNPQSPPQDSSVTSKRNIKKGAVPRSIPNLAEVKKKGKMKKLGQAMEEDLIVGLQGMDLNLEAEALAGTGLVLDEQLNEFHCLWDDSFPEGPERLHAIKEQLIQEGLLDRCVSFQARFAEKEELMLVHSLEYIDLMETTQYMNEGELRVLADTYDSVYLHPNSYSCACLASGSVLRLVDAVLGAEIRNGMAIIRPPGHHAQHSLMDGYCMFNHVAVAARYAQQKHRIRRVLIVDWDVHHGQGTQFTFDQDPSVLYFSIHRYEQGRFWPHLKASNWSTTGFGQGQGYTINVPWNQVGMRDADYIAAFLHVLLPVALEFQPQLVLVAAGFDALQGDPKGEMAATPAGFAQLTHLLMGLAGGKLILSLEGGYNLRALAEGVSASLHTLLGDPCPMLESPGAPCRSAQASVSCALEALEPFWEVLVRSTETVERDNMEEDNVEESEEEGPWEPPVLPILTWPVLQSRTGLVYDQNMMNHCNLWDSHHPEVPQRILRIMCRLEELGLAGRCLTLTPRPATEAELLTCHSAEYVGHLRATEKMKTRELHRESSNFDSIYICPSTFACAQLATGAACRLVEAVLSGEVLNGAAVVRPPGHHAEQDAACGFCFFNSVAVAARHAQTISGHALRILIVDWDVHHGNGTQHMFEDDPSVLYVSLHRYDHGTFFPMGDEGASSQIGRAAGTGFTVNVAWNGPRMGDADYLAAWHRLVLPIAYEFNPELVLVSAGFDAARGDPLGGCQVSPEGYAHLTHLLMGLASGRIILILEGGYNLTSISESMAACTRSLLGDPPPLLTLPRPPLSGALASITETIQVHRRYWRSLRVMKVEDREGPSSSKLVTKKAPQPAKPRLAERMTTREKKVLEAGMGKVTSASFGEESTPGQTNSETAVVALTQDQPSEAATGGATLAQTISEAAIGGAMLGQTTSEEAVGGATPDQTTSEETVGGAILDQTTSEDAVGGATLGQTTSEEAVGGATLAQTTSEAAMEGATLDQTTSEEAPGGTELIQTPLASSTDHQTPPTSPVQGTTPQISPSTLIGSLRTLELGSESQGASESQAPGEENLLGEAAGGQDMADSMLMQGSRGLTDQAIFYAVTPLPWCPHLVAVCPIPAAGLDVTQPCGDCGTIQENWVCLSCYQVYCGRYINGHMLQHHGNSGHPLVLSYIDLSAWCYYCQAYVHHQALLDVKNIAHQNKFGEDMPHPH
# Description: The IC50 was obtained by fitting with GraphPad Prism 7.0 software.
# [1] = Mouse brain-to-plasma drug concentration ratio; format: in vivo, mice
# Experimental: The actual body weight of the mice was measured on the day of dosing and the dose volume was calculated. Each group consisted of 9 mice. The compound was administered as a single intravenous (IV) injection or a single oral gavage (PO). Whole blood samples were collected via orbital bleeding at specified time points. After blood collection, samples were immediately transferred to labeled commercial tubes containing K2-EDTA (0.85-1.15 mg), then centrifuged (3200 x g, 4°C, 10 minutes) to obtain plasma. The plasma was transferred to pre-cooled centrifuge tubes, flash-frozen on dry ice, and stored in an ultra-low temperature freezer at -60°C or lower until LC-MS/MS analysis. 20 µL of plasma sample or brain tissue homogenate was added to 80 µL of internal standard solution (50 ng/mL propafenone in acetonitrile). The plate was sealed at 165 °C using a plate sealer, vortexed for 10 min on a microplate shaker (maximum speed), and centrifuged at 4000 rpm for 20 min using a low-speed benchtop centrifuge. 10 µL of the supernatant was transferred and mixed with 90 µL of acetonitrile. After vortex mixing, the plate was sealed at 165 °C, vortexed again, and 1 µL of the supernatant was taken for LC-MS/MS analysis. The plasma concentration data of the compound were processed using a non-compartmental model with WinNonlin Version 6.3 (Pharsight, Mountain View, CA) pharmacokinetic software. Relevant pharmacokinetic parameters were calculated using the linear log trapezoidal method.
compound,measurement,setting,value
O=C(N[C@@H]1CCCC[C@H]1N1Cc2ccc(-c3nnc(C(F)F)o3)cc2S1(=O)=O)C(F)F [I],pIC50,HDAC6,8.24
same,Brain Drug Concentration,"[1]; 2 mg/kg IV, 1 h",268 ng/mL
same,Plasma Drug Concentration,"[1]; 2 mg/kg IV, 1 h",1090 ng/mL
same,Brain Drug Concentration,"[1]; 2 mg/kg IV, 4 h",149 ng/mL
same,Plasma Drug Concentration,"[1]; 2 mg/kg IV, 4 h",595 ng/mL
same,Brain Drug Concentration,"[1]; 10mg/kg PO, 1 h",882 ng/mL
same,Plasma Drug Concentration,"[1]; 10mg/kg PO, 1 h",4993 ng/mL
same,Brain Drug Concentration,"[1]; 10mg/kg PO, 4 h",435 ng/mL
same,Plasma Drug Concentration,"[1]; 10mg/kg PO, 4 h",2833 ng/mL

# Source: patent EP4786468A1, “CRYSTALLINE FORM OF HDAC6 INHIBITOR AND PREPARATION METHOD THEREFOR” (Suzhou Genhouse Bio Co., Ltd., priority 2023, dated 2025)
